# Laboratory results taken from article PMC6367362, “MD001, a Novel Peroxisome Proliferator-activated Receptor α/γ Agonist, Improves Glucose and Lipid Metabolism” (Scientific Reports, 2019).
# Experiments:
# [1] = biological target: T1, human HA-PPARα (Homo sapiens, UniProt Q07869); assay: PPRE luciferase activity assay in HEK293 cells transfected with HA-PPARα; format: cell-based; parameters: transcriptional activity of PPARα: dose or concentration left out as unconfirmed; settings: HEK293, PPRE-pk-Luc
# T1 construct: expressed in transfected cells; host or cells: HEK293
# T1 sequence (Q07869 1-468): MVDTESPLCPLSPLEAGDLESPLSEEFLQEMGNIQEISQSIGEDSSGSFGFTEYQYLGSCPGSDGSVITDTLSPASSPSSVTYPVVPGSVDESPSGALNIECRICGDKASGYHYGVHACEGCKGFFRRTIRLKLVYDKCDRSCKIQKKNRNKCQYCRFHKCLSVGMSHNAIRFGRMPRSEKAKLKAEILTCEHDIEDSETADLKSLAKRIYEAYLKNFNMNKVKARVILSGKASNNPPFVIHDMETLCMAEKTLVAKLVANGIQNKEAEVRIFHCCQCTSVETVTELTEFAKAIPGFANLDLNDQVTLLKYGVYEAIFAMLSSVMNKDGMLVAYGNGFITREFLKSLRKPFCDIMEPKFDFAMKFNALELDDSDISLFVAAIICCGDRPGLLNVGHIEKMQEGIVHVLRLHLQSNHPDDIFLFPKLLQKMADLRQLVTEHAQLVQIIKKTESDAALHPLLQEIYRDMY
# Procedure: Figure 2 MD001 induces the expression of target genes through PPARα and PPARγ activation. HEK293 cells were transiently co-transfected with human HA-PPARα (A) and HA-PPARγ (B) expression vectors along with the reporter plasmid (PPRE-pk-Luc) or control reporter plasmid (pk-Luc) with Renilla vector for 24 h. Cells were treated with MD001 (10 μM), rosiglitazone (rosi) (10 μM) or WY14643 (WY) (10 μM) for 24 h. Luciferase activity was normalised to Renilla luciferase activity as described in the Methods section. **, vs. vehicle. (C) HepG2 cells were treated with MD001 (10 μM) for 24 h, and total RNA was isolated and synthesised into cDNA. Relative expression was quantitated using qRT-PCR. **, vs. vehicle. (D,E) HepG2 cells were transfected with control siRNA, PPARα siRNA (D), or PPARγ siRNA (E) for 48 h and treated with vehicle, WY14643 (10 μM), rosiglitazone (10 μM) or MD001 (10 μM) for 24 h. Subsequently, cells were harvested for total RNA isolation. Relative expression of target genes was quantitated using qRT-PCR. ^#, vs. control siRNA; ^‡, vs. control siRNA/vehicle; ^§, vs. control siRNA/WY; * and **, vs. control siRNA/MD001. Data represent the mean ± SD of three independent experiments. *P < 0.05, **P < 0.01, ^#P < 0.01, ^‡P < 0.01, and ^§P < 0.01.
# For transient transfection, cells were transfected with plasmid DNA constructs by polyethylenimine (PEI, Polysciences, Inc., Warrington, PA, USA) according to the manufacturer’s instructions. Transcription activity assays of PPARα and PPARγ in HEK293 cells were performed by co-transfection of HA-PPARα, HA-PPARγ, and peroxisome proliferator-response element (PPRE) reporter plasmid (PPRE-pk-Luc) or control reporter plasmid (pk-Luc) with Renilla vector for 24 h. […] Luciferase activity was measured with the Dual-Luciferase Reporter Assay System (Promega, Madison, WI, USA) and quantified using GloMax (Promega, USA) according to the manufacturer’s protocol. […]
# Luciferase activity was measured as described in the Methods section. […]
# [2] = test system: HepG2 cells; assay: In vitro glucose consumption assay, HepG2; format: cell-based, human; settings: 10, 50 μM, 24 h
# Procedure: Figure 3 MD001 promotes glucose consumption by induction of GLUT expression. HepG2 (A), differentiated 3T3-L1 adipocytes (B), and differentiated C2C12 myotubes (C) were treated with vehicle, MD001 (10, 50 μM), or rosiglitazone (rosi, 10 μM) for 24 h; glucose consumption was examined as described in the Methods section. Cells were harvested for total RNA isolation. Relative expression levels of GLUT2 (D) and GLUT4 (E,F) were quantitated using qRT-PCR. *, **, and ^† vs. vehicle. Data represent the mean ± SD of three independent experiments. *P < 0.05, **P < 0.01, and ^†P < 0.01.
# The glucose consumption assay was performed as previously described. Briefly, cells were treated with MD001 or rosiglitazone […]. The conditioned medium from cultured cells was harvested and assayed for glucose content using a Glucose Colorimetric Assay Kit II (BioVision Inc., Milpitas, CA, USA).
compound,measurement,setting,value
Cc1c(O)cc(O)c2c(-c3ccccc3)c(C(=O)/C=C/c3ccccc3)c(=O)oc12 [MD001],transcription via PPARα activation (luciferase activity),"[1]; 10 μM, 24 h, vs. vehicle",significantly increased
same,transcriptional activity of PPARα,[1]; 24 h (Supplementary Fig. S2),promoted simultaneous transcriptional activity
same,glucose consumption,[2],significantly increased glucose consumption in a dose-dependent manner
